Data published in PMC9519446, “Discovery of an Orally Active Benzoxaborole Prodrug Effective in the Treatment of Chagas Disease in Non-human Primates” (Nature microbiology, 2022).
Several values for one entry are separate records, joined by “and”; a condition that tells them apart may be missing. Equal values may be shown once.

Assay: NHP health screening: hematology (CBC)
Type: in vivo, rhesus macaques (Macaca mulatta)
Details: treated macaques, individual animals
Protocol: Under light-anesthesia/sedation, peripheral blood samples were collected from each animal prior to treatment and at 7 time points following. Blood analysis (CBC and serum chemistry assays) and physical exams to evaluate the health of the study animals were performed on each animal prior to the beginning of the study and also at three time points during the treatment protocol (see Supplementary data).

## Cc1c(C(=O)N[C@H](C(=O)OCC2CCOCC2)C(C)C)ccc2c1B(O)OC2 [AN15368]
mid-dosing bleed
  Baso: 0.01 10^3/µL and 0.02 10^3/µL and 0 10^3/µL
  Eos: 0.07 10^3/µL and 0.09 10^3/µL and 0.04 10^3/µL and 0.06 10^3/µL and 0.16 10^3/µL and 0.08 10^3/µL and 0.05 10^3/µL and 0.18 10^3/µL and 0.19 10^3/µL and 0.2 10^3/µL and 0.02 10^3/µL and 0.26 10^3/µL
  Hct: 41.2% and 42.7% and 40.7% and 46.1% and 39.7% and 43.4% and 40% and 40.3% and 41.5% and 41.9% and 42% and 39.6% and 43.3% and 43.7% and 42.6% and 38.2% and 38.9% and 39.9%
  Hgb: 13.1 G/Dl and 14.2 G/Dl and 12.7 G/Dl and 14.6 G/Dl and 12.8 G/Dl and 13.9 G/Dl and 13.4 G/Dl and 13.5 G/Dl and 12.5 G/Dl and 12.6 G/Dl and 14 G/Dl and 13.6 G/Dl and 11.9 G/Dl and 12.9 G/Dl
  Lymp: 3.35 10^3/µL and 4.79 10^3/µL and 3.28 10^3/µL and 5.22 10^3/µL and 2.3 10^3/µL and 2.17 10^3/µL and 3.7 10^3/µL and 4.02 10^3/µL and 5.12 10^3/µL and 2.39 10^3/µL and 2.58 10^3/µL and 3.15 10^3/µL and 3.84 10^3/µL and 2.63 10^3/µL and 2.99 10^3/µL and 4.63 10^3/µL and 1.5 10^3/µL and 2.51 10^3/µL and 3.89 10^3/µL
  Mch: 23.8 Pgs and 22.9 Pgs and 24.1 Pgs and 24.7 Pgs and 24 Pgs and 22.6 Pgs and 24.4 Pgs and 23.9 Pgs and 22.5 Pgs and 23.1 Pgs and 23.3 Pgs and 23.7 Pgs and 22.8 Pgs and 23 Pgs and 22.7 Pgs and 23.6 Pgs
  Mchc: 31.8 G/Dl and 33.3 G/Dl and 31.2 G/Dl and 31.7 G/Dl and 32.2 G/Dl and 32 G/Dl and 32.8 G/Dl and 32.5 G/Dl and 30.8 G/Dl and 32.1 G/Dl and 31.6 G/Dl and 31.9 G/Dl and 33.2 G/Dl and 32.3 G/Dl
  Mcv: 74.9 fL and 68.9 fL and 77.2 fL and 78 fL and 74.5 fL and 70.8 fL and 74.6 fL and 73.8 fL and 72.9 fL and 76.6 fL and 72.2 fL and 76.4 fL and 74.7 fL and 74.4 fL and 71.4 fL and 72.1 fL and 71.2 fL
  Mono: 0.25 10^3/µL and 0.22 10^3/µL and 0.19 10^3/µL and 0.43 10^3/µL and 0.26 10^3/µL and 0.21 10^3/µL and 0.16 10^3/µL and 0.58 10^3/µL and 0.3 10^3/µL and 0.38 10^3/µL and 0.13 10^3/µL and 0.32 10^3/µL and 0.28 10^3/µL and 0.08 10^3/µL and 0.17 10^3/µL and 0.5 10^3/µL
  Mpv: 6.5 fL and 7.2 fL and 7.4 fL and 9.2 fL and 9.1 fL and 6.8 fL and 6.6 fL and 6.7 fL and 7.7 fL and 8.1 fL and 7.9 fL and 7.1 fL and 7.5 fL and 8.8 fL and 8.5 fL
  Neut: 1.09 10^3/µL and 1.04 10^3/µL and 2.08 10^3/µL and 1.9 10^3/µL and 3.38 10^3/µL and 1.51 10^3/µL and 1.78 10^3/µL and 2.28 10^3/µL and 1.12 10^3/µL and 2.03 10^3/µL and 1.69 10^3/µL and 3.43 10^3/µL and 3.82 10^3/µL and 1.6 10^3/µL and 3.07 10^3/µL and 1.17 10^3/µL and 1.61 10^3/µL and 1.53 10^3/µL and 0.96 10^3/µL
  Plt: 354 10^3/µL and 311 10^3/µL and 210 10^3/µL and 266 10^3/µL and 220 10^3/µL and 317 10^3/µL and 438 10^3/µL and 380 10^3/µL and 279 10^3/µL and 251 10^3/µL and 373 10^3/µL and 367 10^3/µL and 434 10^3/µL and 280 10^3/µL and 260 10^3/µL and 432 10^3/µL and 291 10^3/µL and 288 10^3/µL and 306 10^3/µL
  Rbc: 5.5 10^6/µL and 6.2 10^6/µL and 5.27 10^6/µL and 5.91 10^6/µL and 5.33 10^6/µL and 6.13 10^6/µL and 5.36 10^6/µL and 5.46 10^6/µL and 5.69 10^6/µL and 5.47 10^6/µL and 5.82 10^6/µL and 5.18 10^6/µL and 5.8 10^6/µL and 5.32 10^6/µL and 6.12 10^6/µL and 5.24 10^6/µL
  Rdw: 12.8% and 11.9% and 12.5% and 12.1% and 12.7% and 12% and 13.5% and 12.9% and 12.4% and 11.3% and 12.3%
  Wbc: 4.78 10^3/µL and 6.15 10^3/µL and 5.63 10^3/µL and 7.65 10^3/µL and 6 10^3/µL and 3.99 10^3/µL and 5.7 10^3/µL and 7.05 10^3/µL and 6.59 10^3/µL and 4.73 10^3/µL and 4.52 10^3/µL and 7.07 10^3/µL and 8.23 10^3/µL and 4.45 10^3/µL and 6.3 10^3/µL and 3.22 10^3/µL and 4.27 10^3/µL and 5.62 10^3/µL
post-dosing bleed
  Baso: 0.01 10^3/µL and 0.02 10^3/µL and 0 10^3/µL and 0.04 10^3/µL and 0.03 10^3/µL
  Eos: 0.05 10^3/µL and 0.15 10^3/µL and 0.06 10^3/µL and 0.02 10^3/µL and 0.09 10^3/µL and 0.04 10^3/µL and 0.13 10^3/µL and 0.03 10^3/µL and 0.23 10^3/µL and 0.2 10^3/µL and 0.18 10^3/µL
  Hct: 38.2% and 41.9% and 37.7% and 43% and 39.5% and 42.7% and 41% and 42.1% and 39.9% and 41.8% and 40.8% and 39.1% and 40.4% and 43.7% and 37.1% and 39.6% and 41.1%
  Hgb: 12.2 G/Dl and 14.1 G/Dl and 12 G/Dl and 13.9 G/Dl and 12.7 G/Dl and 13.1 G/Dl and 13.5 G/Dl and 12.6 G/Dl and 13.4 G/Dl and 12.1 G/Dl and 14 G/Dl and 13 G/Dl and 11.7 G/Dl and 12.9 G/Dl
  Lymp: 2.22 10^3/µL and 5.87 10^3/µL and 2.42 10^3/µL and 3.66 10^3/µL and 1.59 10^3/µL and 1.61 10^3/µL and 1.2 10^3/µL and 2.96 10^3/µL and 2.61 10^3/µL and 1.64 10^3/µL and 1.73 10^3/µL and 2.56 10^3/µL and 2.26 10^3/µL and 3.27 10^3/µL and 1.82 10^3/µL and 3.4 10^3/µL and 2.49 10^3/µL and 4.82 10^3/µL
  Mch: 24 Pgs and 23.3 Pgs and 24.2 Pgs and 24.8 Pgs and 24.1 Pgs and 22.8 Pgs and 23.6 Pgs and 22.7 Pgs and 25.1 Pgs and 23.5 Pgs and 24.3 Pgs and 23 Pgs and 23.2 Pgs and 23.4 Pgs
  Mchc: 31.9 G/Dl and 33.7 G/Dl and 31.8 G/Dl and 32.3 G/Dl and 32.2 G/Dl and 32.6 G/Dl and 32 G/Dl and 32.1 G/Dl and 31.6 G/Dl and 33.3 G/Dl and 32.8 G/Dl and 30.9 G/Dl and 32.4 G/Dl and 31.5 G/Dl and 31.4 G/Dl
  Mcv: 74.9 fL and 69.4 fL and 76 fL and 76.5 fL and 75.1 fL and 70 fL and 75.4 fL and 73.3 fL and 71.9 fL and 75.6 fL and 71 fL and 76.1 fL and 75 fL and 71.5 fL and 72 fL and 73.8 fL and 71.1 fL
  Mono: 0.18 10^3/µL and 0.32 10^3/µL and 0.21 10^3/µL and 0.33 10^3/µL and 0.22 10^3/µL and 0.38 10^3/µL and 0.54 10^3/µL and 0.11 10^3/µL and 0.26 10^3/µL and 0.1 10^3/µL and 0.28 10^3/µL and 0.15 10^3/µL and 0.34 10^3/µL
  Mpv: 6.6 fL and 7.5 fL and 7.4 fL and 10.2 fL and 8.7 fL and 6.9 fL and 7.1 fL and 7 fL and 6.7 fL and 8.3 fL and 8 fL and 6.4 fL and 8.4 fL and 7.2 fL and 6.8 fL
  Neut: 3.01 10^3/µL and 0.97 10^3/µL and 0.98 10^3/µL and 1.76 10^3/µL and 2.92 10^3/µL and 2.28 10^3/µL and 2.06 10^3/µL and 3.85 10^3/µL and 1.41 10^3/µL and 3.58 10^3/µL and 1.8 10^3/µL and 3.13 10^3/µL and 5.36 10^3/µL and 1.54 10^3/µL and 2.18 10^3/µL and 3.21 10^3/µL and 2.83 10^3/µL and 2.26 10^3/µL and 1.29 10^3/µL
  Plt: 418 10^3/µL and 319 10^3/µL and 265 10^3/µL and 238 10^3/µL and 242 10^3/µL and 283 10^3/µL and 400 10^3/µL and 311 10^3/µL and 246 10^3/µL and 364 10^3/µL and 390 10^3/µL and 478 10^3/µL and 296 10^3/µL and 291 10^3/µL and 431 10^3/µL and 302 10^3/µL and 342 10^3/µL and 357 10^3/µL
  Rbc: 5.1 10^6/µL and 6.04 10^6/µL and 4.96 10^6/µL and 5.62 10^6/µL and 5.26 10^6/µL and 6.1 10^6/µL and 5.44 10^6/µL and 5.74 10^6/µL and 5.55 10^6/µL and 5.53 10^6/µL and 5.75 10^6/µL and 5.14 10^6/µL and 5.39 10^6/µL and 6.11 10^6/µL and 5.61 10^6/µL and 5.03 10^6/µL and 5.57 10^6/µL and 5.49 10^6/µL
  Rdw: 12.7% and 12.2% and 13% and 12% and 13.5% and 11.7% and 12.6% and 12.5% and 13.3% and 11.9% and 12.9% and 12.4% and 12.3% and 11% and 12.8%
  Wbc: 5.48 10^3/µL and 7.33 10^3/µL and 3.67 10^3/µL and 5.82 10^3/µL and 4.76 10^3/µL and 4.2 10^3/µL and 3.7 10^3/µL and 7.52 10^3/µL and 4.16 10^3/µL and 5.51 10^3/µL and 3.69 10^3/µL and 6.15 10^3/µL and 8.14 10^3/µL and 5.08 10^3/µL and 4.41 10^3/µL and 7.03 10^3/µL and 5.73 10^3/µL and 4.11 10^3/µL and 6.68 10^3/µL
